Data on four compounds can be found in patent publication US8962547B2 (Signature Therapeutics, Inc., priority 2011, dated 2015).

A short description of data set [1]: Pharmacokinetics following PO administration to dogs, Study A (oxycodone in plasma).
Data set [2] is described as follows: Pharmacokinetics of Compound KC-8 following PO administration to dogs, Study B. It is filed as in vivo, dog. The note with it: 4.55 to 18.2 mg/kg. How it is done: Compound KC-8 was also dosed to dogs in a separate experiment at the doses indicated in Table 2B, and samples were collected at various times over a 48-h period. Otherwise, the procedures were the same as that described for Study A.

In a further data set the target is T1, trypsin (Bos taurus, UniProt P00760).
T1 construct: purchased Sigma-Aldrich T8003; host or cells: bovine pancreas
T1 sequence (P00760 24-246): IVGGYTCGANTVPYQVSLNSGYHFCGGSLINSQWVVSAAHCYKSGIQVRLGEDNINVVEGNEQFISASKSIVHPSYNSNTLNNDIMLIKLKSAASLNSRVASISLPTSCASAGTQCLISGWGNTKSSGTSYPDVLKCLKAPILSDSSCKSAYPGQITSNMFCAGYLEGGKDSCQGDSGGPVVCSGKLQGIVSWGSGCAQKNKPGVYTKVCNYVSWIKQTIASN
Description: In vitro trypsin-mediated prodrug cleavage. It counts as biochemical, bovine. The note with it: bovine, trypsin from bovine pancreas; 0.761 mM KC-8•2HCl, Tris pH 8, 37° C.; footnote: adjusted to 4815 BAEE U/mL trypsin. How it is done:
(§1) The reactions were conducted at 37° C. for 24 h.
(§2) Table 3 indicates the results of exposure of Compound KC-8 to trypsin. […] Table 3 also indicates the cyclization rate of the cyclizable spacer leaving group of Compound KC-22. The results are expressed as half-life of compound disappearance.

Data set [3] addresses T2, trypsin from bovine pancreas (Bos taurus, UniProt P00760).
T2 construct: purchased Sigma-Aldrich T8003; host or cells: bovine pancreas
T2 sequence (P00760 24-246): T1 sequence (P00760 24-246)
Nature of the data set: In vitro trypsin-mediated prodrug cleavage. It counts as biochemical. On the procedure: as §1, §2

Data set [4] in a line: Spacer leaving group cyclization release rate in phosphate buffer. It counts as physicochemical. Conditions: 2.18 mM initial, 50 mM pH 7.4 phosphate buffer, 20° C.
Text: as §2

Setting [5] is: male, beagle, dog, plasma, po, 2 mg/kg.

With “N-1-[2-(oxycodone-6-enol-carbonyl-methyl-amino)-ethylamine]-arginine-malonic acid [Compound KC-3]”, in data set [1] (oxycodone in dog plasma, 4.15 mg/kg ([…]) PO, LLOQ […]), the “OC Cmax ± sd” value was determined as 10.2 ± 3.3 ng/mL. The “AUC ± sd 0-24 h” value in data set [1] (oxycodone in dog plasma, 4.15 mg/kg PO) amounted to 65.6 ± 22 ng·h/mL.
In the case of `COc1ccc2c3c1O[C@H]1C(OC(=O)N(C)CC(C)(C)CNC(=O)[C@H](CCCNC(=N)N)NC(=O)CNC(=O)CC(=O)O)=CC[C@@]4(O)[C@@H](C2)N(C)CC[C@]314` [Compound KC-8, N-1-[3-(oxycodone-6-enol-carbonyl-methyl-amino)-2,2-dimethyl-propylamine]-arginine-glycine-malonic acid], in data set [1] (dogs, PO), the “oxycodone PK profile compared to administration of oxycodone” value is “suppressed oxycodone Cmax, delayed oxycodone Tmax and extended oxycodone exposure time (AUC)”; the “release of oxycodone into dog plasma compared to Compound KC-3” value is “significantly enhanced release of oxycodone into dog plasma (higher Cmax and AUC)”. Moreover, in data set [2], the “oral PK profile in dogs” value is given as “reproducible oral PK profile in dogs that is dose proportional”. On trypsin, the half-life at 0.761 mM is 11.3 ± 0.48 min. Besides, in data set [3] (0.761 mM KC-8•2HCl, Tris pH 8, 37° C.), the OC formation rate is on record as 0.296 ± 0.044 μmol/h/BAEE U. In addition, in data set [3] (in vitro), the cleavage by trypsin entry was “can be cleaved by trypsin”.
`COc1ccc2c3c1O[C@H]1C(=O)CC[C@@]4(O)[C@@H](C2)N(C)CC[C@]314.Cl` [Oxycodone, oxycodone HCl, reference compound]: in data set [1] (setting [5]), the AUC amounted to 418 ± 54 ng·h/mL, the Cmax amounted to 193 ± 69 ng/mL and the Tmax stood at 30 min.
`COc1ccc2c3c1O[C@H]1C(OC(=O)N(C)CC(C)(C)CN)=CC[C@@]4(O)[C@@H](C2)N(C)CC[C@]314` [Compound KC-22, N-1-[3-(oxycodone-6-enol-carbonyl-methyl-amino)-2,2-dimethyl-propylamine]] yielded a Disappearance half-life in data set [4] of 624 ± 0.36 min.

What is called half-life is how long it takes for the measured level to halve. What is called AUC is the area under the concentration-time curve, a measure of exposure. High values mean high exposure, low ones low exposure. As usually defined, the Cmax is the peak of the concentration-time curve. For orientation: Tmax means the time at which the peak concentration occurs.
